Tested on: KRAS PDC multicell spheroid viability
Experiment: Anticancer human tumor 521955-158-R6-J3-PDC patient-derived pancreatic carcinoma cell line growth inhibition [KRAS2]
Settings: for IC50: curve of first compound; for viability, T/C: stronger effect = lower value
Source text: Multicellular complex tumor spheroid response to RAS pathway inhibitors in combination with a targeted agents in patient-derived cell lines with oncogenic KRAS variants from multiple cancer types
A high-throughput screen of multi-cell type tumor spheroids was designed to identify active combinations of targeted small molecules and KRAS pathway inhibitors. Complex spheroids include a stromal component modeled by human endothelial cells (HUVEC) and fibroblasts modeled by human mesenchymal stem cells (MSCs). The concentration ranges selected for each drug and investigational agent were based upon clinically achievable concentrations if the clinical Cmax of the agent was known.
Compounds. The drugs and investigational agents: BI-3406 (NSC825286), BAY-293 (NSC824723), batoprotafib (TNO155; NSC825523), sotorasib (AMG 510; NSC818433), MRTX1257 (NSC819558), elimusertib (BAY 1895344; NSC800525), molibresib (GSK525762; NSC774829), temuterkib (LY3214996; NSC803410), venetoclax (NSC766270), alisertib (NSC759677), olaparib (NSC753686), talazoparib (NSC767125), erdafitinib (NSC781556), ipatasertib (NSC767898), cabozantinib (NSC761068), nintedanib (NSC756659), abemaciclib (NSC768073), docetaxel (NSC628503), trametinib (NSC758246), and sapanisertib (NSC764658) were obtained from the National Cancer Institute (NCI) Developmental Therapeutics Program Chemical Repository. The FDA-approved anticancer drug set is available from the Developmental Therapeutics Program. […] The stock solutions were prepared in dimethyl sulfoxide (DMSO, Sigma-Aldrich, St. Louis, MO, cat. D2650) at 800-fold the tested concentration and stored at -70 degrees C prior to their use. All drugs and investigational agents were tested over a range starting from a high concentration at or near the clinical Cmax and decreasing in half-log increments. If the clinical Cmax for an agent had not been determined, the highest concentration tested was 10 microM.
Cell Culture. All cells were maintained in an incubator at 37 degrees C and 5% CO2 with 95% humidity. The PDC lines were cultured according to standard operating procedures established by the NCI PDMR (https://pdmr.cancer.gov/sops/default.htm). Briefly, all PDCs were thawed and cultured in Matrigel-coated flasks prepared with a working solution of 1X Ham's F-12 nutrient mix, without supplementation (Invitrogen, Waltham, MA, cat. 11765054), 100 U/mL penicillin-streptomycin (Invitrogen, cat. 15140122), and 2.5% Matrigel (Corning Inc., Corning, NY, cat. 354248) for the first three passages. All PDCs were cultured in complete DMEM/F-12 media containing advanced DMEM/F-12 (Invitrogen, cat. 12634028), 4.9% defined fetal bovine serum, heat inactivated (HyClone Laboratories Inc., Logan, UT, cat. SH30070.03HI), 389 ng/mL hydrocortisone (Sigma-Aldrich, cat. H4001), 9.7 ng/mL human EGF recombinant protein (Invitrogen, cat. PHG0313), 23.4 microg/mL adenine (Sigma-Aldrich, cat. A2786), 97.3 U/mL penicillin-streptomycin (Invitrogen, cat. 15140122), 1.9 mM L-glutamine (Invitrogen, cat. 25030081), and 9.7 microM Y-27632 dihydrochloride (Tocris Bioscience, Bristol, United Kingdom, cat. 1254). The PDCs were cultured in complete DMEM/F12 media without 9.7 microM Y-27632 dihydrochloride for at least two passages prior to the screen. The established cell line HOP-62 was cultured in RPMI 1640 medium, HEPES (Invitrogen, cat. 22400105) with 10% defined fetal bovine serum (HyClone Laboratories Inc., cat. SH30070.03) and 2 mM L-glutamine (Invitrogen, cat. 25030081). The pooled donor HUVEC were cultured in endothelial cell growth medium 2 (PromoCell, Heidelberg, Germany, cat. C-22011) and the hMSC were cultured in mesenchymal stem cell growth medium 2 (PromoCell, cat. C-28009). For all experiments, HUVEC and hMSC were used at passages </=5, while the malignant cell lines were used at passages </=15. […]

[1] = second compound 0.1 µM, first compound 0.0316 µM
[2] = second compound 0.1 µM, first compound 0.1 µM
[3] = second compound 0.1 µM, first compound 0.316 µM
[4] = second compound 0.1 µM, first compound 1 µM
[5] = second compound 0.1 µM, first compound 3.16 µM
[6] = second compound 0.1 µM, first compound 10 µM
[7] = second compound 0.316 µM, first compound 0.0316 µM
[8] = second compound 0.316 µM, first compound 0.1 µM
[9] = second compound 0.316 µM, first compound 0.316 µM
[10] = second compound 0.316 µM, first compound 1 µM
[11] = second compound 0.316 µM, first compound 3.16 µM
[12] = second compound 0.316 µM, first compound 10 µM
[13] = second compound 1 µM, first compound 0.0316 µM
[14] = second compound 1 µM, first compound 0.1 µM
[15] = second compound 1 µM, first compound 0.316 µM
[16] = second compound 1 µM, first compound 1 µM
[17] = second compound 1 µM, first compound 3.16 µM
[18] = second compound 1 µM, first compound 10 µM
[19] = second compound 3.16 µM, first compound 0.0316 µM
[20] = second compound 3.16 µM, first compound 0.1 µM
[21] = second compound 3.16 µM, first compound 0.316 µM
[22] = second compound 3.16 µM, first compound 1 µM
[23] = second compound 3.16 µM, first compound 3.16 µM
[24] = second compound 3.16 µM, first compound 10 µM
[25] = second compound 10 µM, first compound 0.0316 µM
[26] = second compound 10 µM, first compound 0.1 µM
[27] = second compound 10 µM, first compound 0.316 µM
[28] = second compound 10 µM, first compound 1 µM
[29] = second compound 10 µM, first compound 3.16 µM
[30] = second compound 10 µM, first compound 10 µM
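Also: drug exposure lasted seven days.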
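For viability, T/C in this document: 100% = DMSO vehicle wells and lower means fewer viable cells.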

SMILES: COC(=O)c1ccc2c(C(=Nc3ccc(N(C)C(=O)CN4CCN(C)CC4)cc3)c3ccccc3)c(O)[nH]c2c1 + C=CC(=O)N1CCN(c2nc(=O)n(-c3c(C)ccnc3C(C)C)c3nc(-c4c(O)cccc4F)c(F)cc23)C(C)C1
- IC50 (second compound 0.1 µM): 4.73 µM
- IC50 (second compound 0.316 µM): 3.96 µM
- IC50 (second compound 1 µM): 3.14 µM
- IC50 (second compound 3.16 µM): 3.84 µM
- IC50 (second compound 10 µM): 3.77 µM
- viability, T/C [1]: 96.2%
- viability, T/C [2]: 102%
- viability, T/C [3]: 116%
- viability, T/C [4]: 119%
- viability, T/C [5]: 76.8%
- viability, T/C [6]: 0.24%
- viability, T/C [7]: 92.8%
- viability, T/C [8]: 108%
- viability, T/C [9]: 120%
- viability, T/C [10]: 128%
- viability, T/C [11]: 61.9%
- viability, T/C [12]: 0.9%
- viability, T/C [13]: 103%
- viability, T/C [14]: 110%
- viability, T/C [15]: 119%
- viability, T/C [16]: 128%
- viability, T/C [17]: 49.6%
- viability, T/C [18]: 3.61%
- viability, T/C [19]: 108%
- viability, T/C [20]: 94.6%
- viability, T/C [21]: 94.2%
- viability, T/C [22]: 123%
- viability, T/C [23]: 59.9%
- viability, T/C [24]: 1.53%
- viability, T/C [25]: 82.5%
- viability, T/C [26]: 83.3%
- viability, T/C [27]: 88.9%
- viability, T/C [28]: 89%
- viability, T/C [29]: 59%
- viability, T/C [30]: 0.68%

SMILES: O=C(c1cc(Cc2n[nH]c(=O)c3ccccc23)ccc1F)N1CCN(C(=O)C2CC2)CC1 + C=CC(=O)N1CCN(c2nc(=O)n(-c3c(C)ccnc3C(C)C)c3nc(-c4c(O)cccc4F)c(F)cc23)C(C)C1
- IC50 (second compound 0.1 µM): > 10 µM
- IC50 (second compound 0.316 µM): > 10 µM
- IC50 (second compound 1 µM): > 10 µM
- IC50 (second compound 3.16 µM): > 10 µM
- IC50 (second compound 10 µM): > 10 µM
- viability, T/C [1]: 110%
- viability, T/C [2]: 103%
- viability, T/C [3]: 113%
- viability, T/C [4]: 96.1%
- viability, T/C [5]: 101%
- viability, T/C [6]: 96.2%
- viability, T/C [7]: 118%
- viability, T/C [8]: 118%
- viability, T/C [9]: 106%
- viability, T/C [10]: 104%
- viability, T/C [11]: 93.8%
- viability, T/C [12]: 111%
- viability, T/C [13]: 118%
- viability, T/C [14]: 114%
- viability, T/C [15]: 110%
- viability, T/C [16]: 99.3%
- viability, T/C [17]: 99.7%
- viability, T/C [18]: 111%
- viability, T/C [19]: 103%
- viability, T/C [20]: 105%
- viability, T/C [21]: 95.4%
- viability, T/C [22]: 104%
- viability, T/C [23]: 98.2%
- viability, T/C [24]: 81.5%
- viability, T/C [25]: 84.4%
- viability, T/C [26]: 84.7%
- viability, T/C [27]: 87.1%
- viability, T/C [28]: 84%
- viability, T/C [29]: 84.2%
- viability, T/C [30]: 83.9%

From PubChem BioAssay AID1963864 (Molecular Pharmacology Branch, DTP, NCI, 2024)
